Key:
[1] = molecular target: T1, ASIC3 (Rattus norvegicus, UniProt O35240); assay: whole cell patch clamp electrophysiology, ASIC3; format: cell-based; conditions: 1 μM compound; pH 6.5 and pH 5.0; compared with the corresponding 5-vinyl esters
T1 construct: expressed in transfected cells
T1 sequence (O35240 1-533): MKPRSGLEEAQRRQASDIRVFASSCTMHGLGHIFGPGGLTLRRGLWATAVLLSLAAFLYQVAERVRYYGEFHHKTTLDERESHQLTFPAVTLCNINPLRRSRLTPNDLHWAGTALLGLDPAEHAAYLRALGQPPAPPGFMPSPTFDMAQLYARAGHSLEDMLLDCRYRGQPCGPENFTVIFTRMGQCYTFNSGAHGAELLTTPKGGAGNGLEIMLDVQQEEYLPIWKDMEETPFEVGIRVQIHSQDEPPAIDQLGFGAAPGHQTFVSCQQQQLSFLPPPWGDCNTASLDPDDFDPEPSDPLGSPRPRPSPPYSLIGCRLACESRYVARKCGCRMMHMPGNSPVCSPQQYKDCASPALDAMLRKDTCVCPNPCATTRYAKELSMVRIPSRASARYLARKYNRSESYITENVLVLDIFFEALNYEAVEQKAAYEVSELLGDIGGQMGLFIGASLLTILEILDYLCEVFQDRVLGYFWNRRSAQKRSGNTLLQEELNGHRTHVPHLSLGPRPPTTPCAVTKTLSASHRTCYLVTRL
Experimental: (§1) Another example of an in vitro assessment method consists of using mammalian heterologous expression systems, which are known to the skilled in the art, and include a variety of mammalian cell lines such as COS, HEK, e.g., HEK293and/or CHO, cells. Cell lines are transfected with gated ion channel(s) and used to perform electrophysiology as follows:
(§2) All experiments are performed at room temperature (20-25° C.) in voltage clamp using conventional whole cell patch clamp methods (Neher, E., et al. (1978) Pfluegers Arch 375:219-228).
(§3) The amplifier used is the EPC-9 (HEKA-electronics, Lambrect, Germany) run by a Macintosh G3 computer via an ITC-16 interface. Experimental conditions are set with the Pulse-software accompanying the amplifier. Data is low pass filtered and sampled directly to hard-disk at a rate of 3 times the cut-off frequency.
(§4) Pipettes are pulled from borosilicate glass using a horizontal electrode puller (Zeitz-lnstrumente, Augsburg, Germany). The pipette resistances are 2-3 MOhms in the salt solutions used in these experiments. The pipette electrode is a chloridized silver wire, and the reference is a silver chloride pellet electrode (In Vivo Metric, Healdsburg, USA) fixed to the experimental chamber. The electrodes are zeroed with the open pipette in the bath just prior to sealing.
Coverslips with the cells are transferred to a 15 μl experimental chamber mounted on the stage of an inverted microscope (IMT-2, Olympus) supplied with Nomarski optics. Cells are continuously superfused with extracellular saline at a rate of 2.5 ml/min. After giga-seal formation, the whole cell configuration is attained by suction. The cells are held at a holding voltage of −60 mV and at the start of each experiment the current is continuously measured for 45 s to ensure a stable baseline. Solutions of low pH (<7) are delivered to the chamber through a custom-made gravity-driven flowpipe, the tip of which is placed approximately 50 μm from the cell. Application is triggered when the tubing connected to the flowpipe is compressed by a valve controlled by the Pulse-software. Initially, low pH (in general, pH 6.5) is applied for 1 s every 45 s. The sample interval during application is 550 μs. After stable responses are obtained, the extracellular saline as well as the low-pH solution are switched to solutions containing the compound to be tested. The compound is present until responses of a repeatable amplitude are achieved. Current amplitudes are measured at the peak of the responses, and effect of the compounds is calculated as the amplitude at compound equilibrium divided by the amplitude of the current evoked by the pulse just before the compound was included. […]

[2] = molecular target: T2, ASIC1a (Rattus norvegicus, UniProt P55926); assay: whole cell patch clamp electrophysiology, ASIC1a; format: cell-based; conditions: 1 μM compound; pH 6.5 and pH 5.0; compared with the corresponding 5-vinyl esters
T2 construct: expressed in transfected cells; host or cells: HEK cells according to b213
T2 sequence (P55926 1-526): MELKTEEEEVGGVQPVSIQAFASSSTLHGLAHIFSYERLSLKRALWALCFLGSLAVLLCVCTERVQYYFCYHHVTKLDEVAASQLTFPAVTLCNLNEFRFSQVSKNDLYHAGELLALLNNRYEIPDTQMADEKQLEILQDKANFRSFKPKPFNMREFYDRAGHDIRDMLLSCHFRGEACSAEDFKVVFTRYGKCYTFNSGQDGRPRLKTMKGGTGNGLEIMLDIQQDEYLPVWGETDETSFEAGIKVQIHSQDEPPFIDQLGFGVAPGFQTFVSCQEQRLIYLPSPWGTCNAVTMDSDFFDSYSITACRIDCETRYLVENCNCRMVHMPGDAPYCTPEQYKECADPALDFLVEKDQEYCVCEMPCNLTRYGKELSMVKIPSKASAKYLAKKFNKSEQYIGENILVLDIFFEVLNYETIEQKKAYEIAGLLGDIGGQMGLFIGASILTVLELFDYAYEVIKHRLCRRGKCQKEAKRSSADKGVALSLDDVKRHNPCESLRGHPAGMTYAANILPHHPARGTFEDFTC
Experimental: as §1, §2, §3, §4
Coverslips with the cells are transferred to a 15 μl experimental chamber mounted on the stage of an inverted microscope (IMT-2, Olympus) supplied with Nomarski optics. Cells are continuously superfused with extracellular saline at a rate of 2.5 ml/min. After giga-seal formation, the whole cell configuration is attained by suction. The cells are held at a holding voltage of −60 mV and at the start of each experiment the current is continuously measured for 45 s to ensure a stable baseline. Solutions of low pH (<7) are delivered to the chamber through a custom-made gravity-driven flowpipe, the tip of which is placed approximately 50 μm from the cell. Application is triggered when the tubing connected to the flowpipe is compressed by a valve controlled by the Pulse-software. Initially, low pH (in general, pH 6.5) is applied for 1 s every 45 s. The sample interval during application is 550 μs. After stable responses are obtained, the extracellular saline as well as the low-pH solution are switched to solutions containing the compound to be tested. The compound is present until responses of a repeatable amplitude are achieved. Current amplitudes are measured at the peak of the responses, and effect of the compounds is calculated as the amplitude at compound equilibrium divided by the amplitude of the current evoked by the pulse just before the compound was included.
The following salt solutions are used: extracellular solution (mM): NaCl (140), KCl (4), CaCl2 (2), MgCl2 (4), HEPES (10, pH 7.4); intracellular solution (mM): KCl (120), KOH (31), MgCl2 (1.785), […] (10), HEPES (10, pH 7.2). In general, compounds for testing are dissolved in 50% DMSO at 500 fold the highest concentration used.
The cDNA for ASIC1a and ASIC3 can be cloned from rat poly(A)^+ mRNA and put into expression vectors according to Hesselager et al. (J Biol Chem. 279(12):11006-15 2004). All constructs are expressed in CHO-K1 cells (ATCC no. CCL61). CHO-K1 cells are cultured at 37° C. in a humidified atmosphere of 5% CO2 and 95% air and passaged twice every week. The cells are maintained in DMEM (10 mM HEPES, 2 mM glutamax) supplemented with 10% fetal bovine serum and 2 mM L-proline (Life Technologies). […]

[3] = test system: Male Sprague-Dawley rats; assay: Formalin test (flinching behaviour); format: in vivo, rat; conditions: 10 mg/kg i.v. 10 min prior to formalin in the hind limb; compared with vehicle; n=8
Experimental: Male Sprague-Dawley rats (body weight, 180-300 g) are housed together in groups of four animals under standard conditions with unrestricted access to food and water. Rats are housed in the room in which the testing procedure is performed to minimize any stress response to novel environmental cues. All experiments are conducted according to the ethical guidelines for investigations of experimental pain in conscious animals (Zimmerman, 1983).
Separate groups of rats are used for the different experiments such that each animal is used on one occasion only. All experiments for a given compound are performed using age matched animals in an attempt to avoid variability between experiments. Prior to initiation of the formalin test, 4 rats are habituated in separate testing cages for 15-20 min. […] On the basis of the response pattern, two distinct phases of nociceptive behavior are observed, characterized by flinching of the affected paw and scored (Blackburn-Munro et al., Eur J Pharmacol. 2002 Jun. 12;445(3):231-8). […]
All data is analysed using Sigmastat 2.03 statistical software (Jandel Scientific GmbH, Germany) and expressed as mean±S.E.M. Two Way Repeated Measures Analysis of Variance (Two Way RM ANOVA) is used to analyse formalin test data and where applicable, this is followed by post-hoc analysis using Bonferroni's t-test to allow comparisons between groups. […]

[4] = molecular target: T3, ASIC1a (Homo sapiens, UniProt P78348); assay: FLIPR calcium assay (MES-induced calcium response), ASIC1a expressing HEK293 cells; format: cell-based; conditions: HEK293; at 1 μM, HEK cells, FLIPR
T3 construct: host or cells: HEK293
T3 sequence (P78348 1-528): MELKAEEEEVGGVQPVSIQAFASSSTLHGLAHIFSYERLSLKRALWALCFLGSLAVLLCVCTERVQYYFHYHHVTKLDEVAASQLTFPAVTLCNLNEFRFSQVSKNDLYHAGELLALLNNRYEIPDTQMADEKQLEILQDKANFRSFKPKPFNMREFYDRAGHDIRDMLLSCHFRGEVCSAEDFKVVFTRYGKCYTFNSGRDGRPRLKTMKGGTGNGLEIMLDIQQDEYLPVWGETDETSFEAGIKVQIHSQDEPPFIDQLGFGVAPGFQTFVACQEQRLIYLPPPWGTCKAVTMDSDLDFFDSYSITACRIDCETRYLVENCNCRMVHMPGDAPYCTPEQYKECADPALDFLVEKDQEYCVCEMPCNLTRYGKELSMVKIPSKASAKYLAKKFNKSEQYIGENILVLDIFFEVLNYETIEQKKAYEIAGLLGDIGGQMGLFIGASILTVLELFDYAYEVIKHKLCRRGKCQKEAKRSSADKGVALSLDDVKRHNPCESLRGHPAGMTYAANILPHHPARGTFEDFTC
Experimental: ASIC1a expressing HEK293 cells are grown in culture medium (DMEM with 10% FBS), in polystyrene culture flasks ([…]) at 37° C. in a humidified atmosphere of 5% CO2. Confluency of cells should be 80-90% on day of plating. Cells are rinsed with 10 ml of PBS and cells are re-suspended by addition of culture medium and trituration with a 25 ml pipette.
The cells are seeded at a density of approximately 1×10^6 cells/ml (100 μl/well) in black-walled, clear bottom, 96-well plates pre-treated with 10 mg/l poly-D-lysin (75 μl/well for ≧30 min). Plated cells were allowed to proliferate for 24 h before loading with dye.
Fluo-4/AM (1 mg, Molecular Probes) is added 912 μl DMSO. The Fluo-4/AM stock solution (1 mM) is diluted with culture medium to a final concentration of 2 μM.
The culture medium is aspirated from the wells, and 50 μl of the Fluo-4/AM loading solution is added to each well. The cells are incubated at 37° C. for 30 min.
After the loading period, the loading solution is aspirated and the cells are washed twice with 100 μl modified FLIPR medium (145 mM NaCl, 5 mM KCl, 5 mM CaCl2, 1 mM MgCl2, 10 mM HEPES, pH 7.4) to remove extracellular dye. Following the second wash, 100 μl modified FLIPR medium is added to each well and the fluorescence is measured in FLIPR.
Temperature: Room temperature (20-22° C.)
First addition: 50 μl test solution at a rate of 30 μl/sec and a starting height of […]
Second addition: 50 μl MES solution (20 mM, 5 mM final concentration) at a rate of 35 μl/sec and a starting height of 150 μl.
Reading intervals: pre-incubation—10 sec×7 and 3 sec×3 antagonist phase—3 sec×17 and 10 sec×12
Addition plates (compound test plate and MES plate) are placed on the right and left positions in the FLIPR tray, respectively. Cell plates are placed in the middle position and the ASIC1a program is effectuated. FLIPR will then take the appropriate measurements in accordance with the interval settings above. Fluorescence obtained after stimulation is corrected for the mean basal fluorescence (in modified FLIPR medium). […]

Structure (SMILES)	difference in current between control ASICs and ASICs with compound (ASIC3) [1]	difference in current between control ASICs and ASICs with compound (ASIC1a) [2]	flinching behaviour in Formalin test [3]	inhibition at 1 µM [4] [%]
CCC1CN2CCC1CC2C(OC(=O)CC(C)(C)C)c1ccnc2ccc(OC)cc12 (stereo not drawn) [3,3-dimethyl-butyric acid (5-ethyl-1-aza-bicyclo[2.2.2]oct-2-yl)-(6-methoxy-quinolin-4-yl)-methyl ester]	larger difference in current	larger difference in current	–	–
C=CC1CN2CCC1CC2[C@H](OC(=O)CCC1CCCC1)c1ccnc2ccccc12 (stereo partly drawn) [B]	–	–	attenuated flinching behaviour	–
C=CC1CN2CCC1CC2[C@H](OC(=O)CCC1CCCC1)c1ccnc2ccccc12 (stereo partly drawn) [drawing 27]	–	–	–	30 to 45
CCCCC(=O)OC(c1ccnc2ccc(OC)cc12)C1CC2CCN1CC2CC (stereo not drawn) [pentanoic acid (5-ethyl-1-aza-bicyclo[2.2.2]oct-2-yl)-(6-methoxy-quinolin-4-yl)-methyl ester]	larger difference in current	larger difference in current	–	–

Source: patent publication US20070004680A1, “Compositions and methods for modulating gated ion channels” (PainCeptor Pharma Corporation, priority 2004, published 2007)
